From patent US7267977B2, “Peripheral-type benzodiazepine receptor: a tool for detection, diagnosis, prognosis, and treatment of cancer” (Georgetown University, priority 1998, dated 2007)

Assays:
MCF-7 nuclei = assay: Nuclear uptake of 3H-cholesterol, MCF-7 nuclei; format: biochemical, human; details: increasing concentrations of PK11195
Protocol: (§1) Nuclear Uptake of ^3H-Cholesterol—Nuclei were isolated from MDA-231, MCF-7, and as described by Elango et al (1997). […] Samples were then centrifuged at 500×g for 30 min and pellets were washed in […] ice-cold PBS. After a second centrifugation at 500×g for 30 min, 200 ul 1.0 N NaOH was then added to the pellets and incubated overnight at 37° C. After incubation, 200 ul 1.0 N HCl was added and samples were vigorously vortexed. 3 ml scintillation cocktail (Eco-Lite) was then added prior to reading radioactivity on a Wallac 1409 Liquid Scintillation Counter.

PBR [1] = molecular target: T1, PBR (Homo sapiens, UniProt P30536); assay: Compound 4 fluorescence labeling of human breast tissue biopsies; set-up: Paraffin embedded sections of normal breast tissue; from tissue; host or cells: human breast biopsies (normal tissue and aggressive carcinoma), Lombardi Cancer Center; details: 1000 fold excess of competitive ligand
Target sequence in this assay (P30536 whole entry): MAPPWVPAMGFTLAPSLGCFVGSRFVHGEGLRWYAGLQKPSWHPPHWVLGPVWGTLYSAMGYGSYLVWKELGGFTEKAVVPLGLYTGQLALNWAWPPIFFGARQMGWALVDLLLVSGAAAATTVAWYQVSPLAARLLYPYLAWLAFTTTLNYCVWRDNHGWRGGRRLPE
Protocol: PBR ligand binding activity was determined using the fluorescent PBR derivative compound 4 [Munson, 1980, supra]
In some samples, the hematoxylin counterstaining was omitted in order to confirm the PBR positive staining of the nuclei of breast carcinoma cells (b). […] In this experiment an FITC-coupled secondary antibody was used to localize the immunoreactive PBR protein. […] PBR ligand binding activity was also determined in the aggressive breast carcinomas using the fluorescent PBR derivative compound 4 (FIG. 10e).

MDA-231 nuclei = assay: Nuclear uptake of 3H-cholesterol, MDA-231 nuclei; format: biochemical, human; details: -8 to -6M PK11195, MDA-231 nuclei, 60 min at 37° C.
Protocol: as §1

[2] = molecular target: T2, peripheral-type benzodiazepine receptor (PBR) (Homo sapiens, UniProt P30536); assay: [3H]PK11195 radioligand binding to whole cells (Scatchard analysis, competition); details: 50 μg protein, [3H]PK11195, Scatchard plot
T2 construct: Cells were scraped from 150 mm culture dishes into 5 ml phosphate buffered saline (PBS); endogenous in cells; host or cells: MDA-231, MCF-7 and MCF-7ADR (ADR) human breast cancer cells, whole cells or isolated nuclei
T2 sequence (P30536 2-169): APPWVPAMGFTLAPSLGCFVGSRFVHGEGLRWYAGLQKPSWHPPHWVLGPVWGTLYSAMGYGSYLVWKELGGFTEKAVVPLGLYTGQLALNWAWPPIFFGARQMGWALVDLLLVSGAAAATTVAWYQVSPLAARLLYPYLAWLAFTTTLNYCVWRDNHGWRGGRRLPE
Protocol: (§2) Radioligand Binding Assays—Cells were scraped from 150 mm culture dishes into 5 ml phosphate buffered saline (PBS), dispersed by trituration, and centrifuged at 500×g for 15 min. Cell pellets were resuspended in PBS and assayed for protein concentration. […] Scatchard plots were analyzed by the LIGAND program [Munson, (1980) Anal. Biochem. 107:220]. […] IC50 estimation was performed using the LIGAND program (Munson, 1980, supra).

MDA-231 cells = assay: BrdU cell proliferation ELISA; format: cell-based, human; details: for stimulation of MDA-231 cell proliferation: 48 h
Protocol: BrdU Cell Proliferation Assays and BrdU-labeling of MDA-231 Cells—MDA-231 cells were plated on 96-well plates (Corning) at a concentration of approximately 10,000 cells/well (24 h incubation) or approximately 5,000 cells/well (48 h incubation) in DMEM supplemented with 0.1% FBS.

[3] = molecular target: T2, peripheral-type benzodiazepine receptor (PBR); assay: [3H]PK11195 binding to isolated nuclei (Scatchard analysis); details: pmol/mg nuclear protein
Protocol: as §2, §1

PBR [4] = molecular target: T1, PBR; assay: Fluorescent microscopy with compound 4 fluorescent PBR ligand, cultured cells; format: cell-based; set-up: endogenous in cells; host or cells: MDA-231, MCF-7 and MCF-7ADR (ADR) human breast cancer cells, whole cells or isolated nuclei; details: MDA-231 cells, 100 uM competitor, 1 uM compound 4, 45 min at 37° C.
Protocol: Fluorescent Microscopy with the compound 4 fluorescent PBR Ligand—MA-10, MDA-231, MCF-7, and ADR cells were grown on glass coverslips as previously described [Kozikowski et al. (1997) J. Med. Chem. 40: 2435-2439]. Cells were then washed twice with sterile PBS and incubated for 45 min with 1 uM compound 4, a fluorescent derivative of the PBR ligand FGIN-27, with or without a competing PBR ligand, FGIN-27, at a concentration of 100 uM. After the incubation period, the cells were washed with PBS and examined by fluorescent microscopy using an Olympus BH-2 fluorescence microscope.
Target sequence in this assay (P30536 2-169): as above

| SMILES | response of cholesterol uptake to PK11195 dose-response (MCF-7 nuclei) | displacement of compound 4 fluorescence (PBR [1]; aggressive breast carcinoma biopsies) | displacement of compound 4 fluorescence (PBR [1]; normal human breast tissue) | decrease in the amount of cholesterol uptake (MDA-231 nuclei) | Bmax ([2]; ADR (MCF-7ADR) cells) | Bmax ([2]; MDA-231 cells) | effect on MDA-231 cell proliferation (MDA-231 cells; 24 h, −10 and −9M) | stimulation of MDA-231 cell proliferation (MDA-231 cells; any of the micromolar concentrations) | stimulation of MDA-231 cell proliferation (MDA-231 cells; −8M) | Emax (MDA-231 cells; Homo sapiens, MDA-MB-231, 24 h, −5M, read-out: maximal stimulation of MDA-231 cell proliferation) | toxicity to MDA-231 cells (MDA-231 cells; −4M) | Bmax ([3]; nuclei isolated from MCF-7 cells) | Bmax ([3]; nuclei isolated from MDA-231 cells) | displacement of compound 4 fluorescent binding (PBR [4]) |
| --- | --- | --- | --- | --- | --- | --- | --- | --- | --- | --- | --- | --- | --- | --- |
| CCC(C)N(C)C(=O)c1cc2ccccc2c(-c2ccccc2Cl)n1 (centres unmarked) [PK11195] | failed to respond | completely displaced the fluorescence | completely displaced the fluorescence | ~20% | 1.3±0.23 pmol/mg protein | 8.7±1.4 pmol/mg protein | no effect | no stimulation | 40% | 40% | toxic concentration | 0.4±0.2 pmol/mg protein | 6.9±4.8 pmol/mg protein |  |
| CCCCCCN(CCCCCC)C(=O)Cc1c(-c2ccc(F)cc2)[nH]c2ccccc12 [FGIN-27] |  |  |  |  |  |  |  |  |  |  |  |  |  | displacement of fluorescent binding |
